Measurements as given in US10525055B2, “Opioid receptor antagonist prodrugs” (Nirsum Laboratories, Inc., priority 2017, dated 2020).

Columns and labels:
[1] = Dog pharmacokinetic studies, deep intramuscular; format: in vivo, Beagle dogs; conditions: dog IM, 48 mg/kg, Sesame oil + 1% Benzyl Alcohol
Experimental: The purpose of this study is to determine the pharmacokinetics of test compounds in plasma, following deep intramuscular administration to Beagle dogs (n=3, unless otherwise specified).
(§1) The dose formulation (concentration−400 mg base equivalents/ml in sesame oil+1% benzyl alcohol, unless otherwise specified) was administered via deep intramuscularly (unless otherwise specified). The injection vehicle was also dosed via deep intramuscular route (unless otherwise specified) on contralateral site of each animal at study initiation. The animals were sedated with Propofol at 6 mg/kg via IV administration. Following sedation hair was carefully removed from around the injection site and the area gently cleaned. Care will be taken to avoid irritating skin during shaving and cleaning the injection site. Then dogs will be dosed with deep IM administration. At least 2.5 cm depth from the surface into the central aspect of the quadriceps or biceps femoris muscle, by angling the needle toward the femur. If the needle hits the femur, simply draws back slightly and then inject. The dose volume will be determined by the animals' body weight collected on the morning of dosing day. For repeated administration, the injection sites may be rotated to minimize tissue injury.
Blood samples were collected from a peripheral vessel from restrained, non-sedated animals per sampling time point.
Approximately 0.8 mL blood will be collected at each time point.
Each collected blood sample was centrifuged for 4 minutes at 4° C. and 10000 rpm for plasma collection. Plasma was collected and transferred into a pre-labeled PP tube in dry ice at each time point and precipitated immediately using ACN at a ratio of 1:4 (plasma:ACN). Centrifuged again (10 minutes, 12000 rpm) and obtain the supernatant.
After terminal collection, all supernatant was stored at approximately −80° C. F until bioanalysis.
LC-MS/MS methods for the quantitative determination of test compound in biological matrix were developed. […] The sample analysis was performed concurrently with a set of calibration standards and two sets of QC samples using the LC-MS/MS method.
Plasma concentration versus time data was analyzed by non-compartmental approaches using the Phoenix WinNonlin 6.3 software program. Cmax, Tmax, T1/2, AUC(0-t), AUC(0-inf), MRT(0-t), MRT(0-inf) and graphs of plasma concentration versus time profile were prepared.

[2] = Solubility determination in oil (cottonseed oil, sesame oil); conditions: Sesame oil; volumetric flask method; heating 60 °C, obs. 25 °C
Experimental: A known amount of test substance (˜40 mg) was weighed into the vial, 100 μL of oil was added and heated to 60° C. and then system was slurried to reach equilibrium. […] Extra oil was added into the vial once compound precipitated out and then the system was re-equilibrated at 1000 rpm at room temperature (25° C.). Final concentration was determined by HPLC method as described below in Table 6a and 6b.

DOR = molecular target: T1, DOR (Homo sapiens, UniProt P41143); experiment: Opioid receptor binding assay, DOR ([3H]-DADLE); conditions: for %Inh@MaxDose: DOR
T1 construct: expressed in transfected cells; membranes prepared from them

[3] = Dog clinical observations after intramuscular dosing; format: in vivo, Beagle dogs
Experimental: Weight monitoring was done every week.
as §1

T1 sequence (P41143 whole entry): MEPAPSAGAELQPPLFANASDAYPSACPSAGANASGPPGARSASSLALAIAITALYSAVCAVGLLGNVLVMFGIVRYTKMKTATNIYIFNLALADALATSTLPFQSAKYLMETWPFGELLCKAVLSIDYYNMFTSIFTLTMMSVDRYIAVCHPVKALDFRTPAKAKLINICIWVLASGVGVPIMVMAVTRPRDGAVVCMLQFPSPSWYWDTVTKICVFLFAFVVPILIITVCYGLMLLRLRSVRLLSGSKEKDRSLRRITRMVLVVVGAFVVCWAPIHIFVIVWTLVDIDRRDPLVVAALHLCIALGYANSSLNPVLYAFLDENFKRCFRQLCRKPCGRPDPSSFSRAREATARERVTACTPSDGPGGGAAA

## CCCCCCCCCCCOC(=O)OCOc1ccc2c3c1O[C@H]1C(=O)CC[C@@]4(O)C(C2)N(CC2CC2)CC[C@]314 [Compound 4, (((4aS,7aR,12bS)-3-(cyclopropylmethyl)-4a-hydroxy-7-oxo-2,3,4,4a,5,6,7,7a-octahydro-1H-4,12-methanobenzofuro[3,2-e]isoquinolin-9-yl)oxy)methyl undecyl carbonate]
[1]
  AUC0-inf (ng · h/mL) prodrug: 829 ng·h/mL
[2]
  Solubility by volumetric flask method: Sesame oil: >400.4 mg/mL
DOR
  IC50: > 10 µM
DOR; MaxDose 10000 nM
  %Inh@MaxDose: 43.2%

## C=C1CC[C@@]2(O)C3Cc4ccc(OC(=O)OCCCCCCCCCCC)c5c4[C@@]2(CCN3CC2CC2)[C@H]1O5 [Compound 3, (4aS,7aS,12bS)-3-(cyclopropylmethyl)-4a-hydroxy-7-methylene-2,3,4,4a,5,6,7,7a-octahydro-1H-4,12-methanobenzofuro[3,2-e]isoquinolin-9-yl undecyl carbonate]
[1]
  AUC0-inf (ng · h/mL) prodrug: 360 ng·h/mL
  Half-life t1/2 (hour) prodrug: 63.1 h
[2]
  Solubility by volumetric flask method: Sesame oil: >400.7 mg/mL

## C=C1CC[C@@]2(O)C3Cc4ccc(OCOC(=O)OCCCCCCCCCCC)c5c4[C@@]2(CCN3CC2CC2)[C@H]1O5 [Compound 5, (((4aS,7aS,12bS)-3-(cyclopropylmethyl)-4a-hydroxy-7-methylene-2,3,4,4a,5,6,7,7a-octahydro-1H-4,12-methanobenzofuro[3,2-e]isoquinolin-9-yl)oxy)methyl undecyl carbonate]
[1]
  AUC0-inf (ng · h/mL) prodrug: 3869 ng·h/mL
  Half-life t1/2 (hour) prodrug: 70.9 h
[2]
  Solubility by volumetric flask method: Sesame oil: >400.6 mg/mL
[3]; dog D1001, 48 mg/kg, 264 hr
  BT (clinical observations, R-TA): BT:38.6 °C
[3]; dog D1001, 48 mg/kg, 288 hr
  BT (clinical observations, R-TA): BT:38.6 °C
[3]; dog D1001, 48 mg/kg, 312 hr
  BT (clinical observations, R-TA): BT:38.0 °C
[3]; dog D1001, 48 mg/kg, 336 hr
  BT (clinical observations, R-TA): BT:38.4 °C
[3]; dog D1001, 48 mg/kg, 360 hr
  BT (clinical observations, R-TA): BT:38.1 °C
[3]; dog D1001, 48 mg/kg, 432 hr
  BT (clinical observations, R-TA): BT:38.0 °C
[3]; dog D1001, 48 mg/kg, 480 hr
  BT (clinical observations, R-TA): BT:38.0 °C
[3]; dog D1001, 48 mg/kg, 528 hr
  BT (clinical observations, R-TA): BT38.2 °C
[3]; dog D1001, 48 mg/kg, 552 hr
  BT (clinical observations, R-TA): BT:38.4 °C
[3]; dog D1001, 48 mg/kg, 576 hr
  BT (clinical observations, R-TA): BT:38.4 °C
[3]; dog D1001, 48 mg/kg, 600 hr
  BT (clinical observations, R-TA): BT:38.3 °C
[3]; dog D1001, 48 mg/kg, 624 hr
  BT (clinical observations, R-TA): BT:38.6 °C
[3]; dog D1001, 48 mg/kg, 648 hr
  BT (clinical observations, R-TA): BT:38.3 °C
[3]; dog D1001, 48 mg/kg, 672 hr
  BT (clinical observations, R-TA): BT:38.3 °C
[3]; dog D1001, 48 mg/kg, […]
  BT (clinical observations, R-TA): BT:38.7 °C
[3]; dog D1002, 48 mg/kg, 264 hr
  BT (clinical observations, R-TA): BT:39.5 °C
[3]; dog D1002, 48 mg/kg, 288 hr
  BT (clinical observations, R-TA): BT:39.5 °C
[3]; dog D1002, 48 mg/kg, 312 hr
  BT (clinical observations, R-TA): BT:38.5 °C
[3]; dog D1002, 48 mg/kg, 336 hr
  BT (clinical observations, R-TA): BT:38.7 °C
[3]; dog D1002, 48 mg/kg, 360 hr
  BT (clinical observations, R-TA): BT:39.1 °C
[3]; dog D1002, 48 mg/kg, 432 hr
  BT (clinical observations, R-TA): BT:38.9 °C
[3]; dog D1002, 48 mg/kg, 456 hr
  BT (clinical observations, R-TA): BT:38.9 °C
[3]; dog D1002, 48 mg/kg, 480 hr
  BT (clinical observations, R-TA): BT:39.2 °C
[3]; dog D1002, 48 mg/kg, 504 hr
  BT (clinical observations, R-TA): BT:38.7 °C
[3]; dog D1002, 48 mg/kg, 528 hr
  BT (clinical observations, R-TA): BT:37.9 °C
[3]; dog D1002, 48 mg/kg, 552 hr
  BT (clinical observations, R-TA): BT:39.2 °C
[3]; dog D1002, 48 mg/kg, 576 hr
  BT (clinical observations, R-TA): BT:39.0 °C
[3]; dog D1002, 48 mg/kg, 600 hr
  BT (clinical observations, R-TA): BT:38.6 °C
[3]; dog D1002, 48 mg/kg, 624 hr
  BT (clinical observations, R-TA): BT:38.9 °C
[3]; dog D1002, 48 mg/kg, 648 hr
  BT (clinical observations, R-TA): BT:38.5 °C
[3]; dog D1002, 48 mg/kg, 672 hr
  BT (clinical observations, R-TA): BT:39.3 °C

## C=C1CC[C@@]2(O)C3Cc4ccc(OCOC(=O)OCCCCCCCCCCCCCCCC)c5c4[C@@]2(CCN3CC2CC2)[C@H]1O5 [Compound 34, (((4aS,7aS,12bS)-3-(cyclopropylmethyl)-4a-hydroxy-7-methylene-2,3,4,4a,5,6,7,7a-octahydro-1H-4,12-methanobenzofuro[3,2-e]isoquinolin-9-yl)oxy)methyl hexadecyl carbonate]
DOR; MaxDose 10000 nM
  %Inh@MaxDose: 22.7%

## C=C1CC[C@@]2(O)C3Cc4ccc(OCOC(=O)OCCCCCCCCCC)c5c4[C@@]2(CCN3CC2CC2)[C@H]1O5 [Compound 35, (((4aS,7aS,12bS)-3-(cyclopropylmethyl)-4a-hydroxy-7-methylene-2,3,4,4a,5,6,7,7a-octahydro-1H-4,12-methanobenzofuro[3,2-e]isoquinolin-9-yl)oxy)methyl decyl carbonate]
[1]
  Half-life t1/2 (hour) prodrug: 70 h
[3]; dog D1501, 48 mg/kg, 24 hr
  Clinical observations, R-TA: Red spots at groin
[3]; dog D1501, 48 mg/kg, 48 hr
  Clinical observations, R-TA: Red spots at groin
[3]; dog D1501, 48 mg/kg, 72 hr
  BT (clinical observations, R-TA): at groin/BT: 39.1 °C
[3]; dog D1501, 48 mg/kg, 96 hr
  BT (clinical observations, R-TA): at groin/BT: 39.0 °C
[3]; dog D1501, 48 mg/kg, 120 hr
  BT (clinical observations, R-TA): at groin/BT: 39.1 °C
[3]; dog D1501, 48 mg/kg, 144 hr
  BT (clinical observations, R-TA): groin/BT: 38.7 °C
[3]; dog D1501, 48 mg/kg, 192 hr
  BT (clinical observations, R-TA): groin/BT: 38.2 °C
[3]; dog D1501, 48 mg/kg, 216 hr
  BT (clinical observations, R-TA): groin/BT: 38.6 °C
[3]; dog D1501, 48 mg/kg, 240 hr
  BT (clinical observations, R-TA): groin/BT: 38.2 °C
[3]; dog D1501, 48 mg/kg, 264 hr
  BT (clinical observations, R-TA): groin/BT: 38.0 °C
[3]; dog D1501, 48 mg/kg, 288 hr
  BT (clinical observations, R-TA): groin/BT: 38.4 °C
[3]; dog D1501, 48 mg/kg, […]
  BT (clinical observations, R-TA): groin/BT: 38.9 °C
[3]; dog D1502 (third dog column), 48 mg/kg, 72 hr
  BT (clinical observations, R-TA): leg/BT: 39.3 °C
[3]; dog D1502 (third dog column), 48 mg/kg, 96 hr
  BT (clinical observations, R-TA): leg/BT: 39.3 °C
[3]; dog D1502 (third dog column), 48 mg/kg, 120 hr
  BT (clinical observations, R-TA): BT: 39.4 °C
[3]; dog D1502 (third dog column), 48 mg/kg, 144 hr
  BT (clinical observations, R-TA): BT: 39.0 °C
[3]; dog D1502 (third dog column), 48 mg/kg, 192 hr
  BT (clinical observations, R-TA): at calf/BT: 39.2 °C
[3]; dog D1502 (third dog column), 48 mg/kg, 216 hr
  BT (clinical observations, R-TA): calf/BT: 39.2 °C
[3]; dog D1502 (third dog column), 48 mg/kg, 240 hr
  BT (clinical observations, R-TA): calf/BT: 38.9 °C
[3]; dog D1502 (third dog column), 48 mg/kg, 264 hr
  BT (clinical observations, R-TA): 6 * 6 cm/BT: 38.7 °C
[3]; dog D1502 (third dog column), 48 mg/kg, 288 hr
  BT (clinical observations, R-TA): 6 * 6 cm/BT: 38.7 °C
[3]; dog D1502 (third dog column), 48 mg/kg, […]
  BT (clinical observations, R-TA): at calf/BT: 39.3 °C
[3]; dog D1502, 48 mg/kg, 72 hr
  BT (clinical observations, R-TA): red/BT: 39.6 °C
[3]; dog D1502, 48 mg/kg, 96 hr
  BT (clinical observations, R-TA): red/BT: 38.9 °C
[3]; dog D1502, 48 mg/kg, 120 hr
  BT (clinical observations, R-TA): red/BT: 39.6 °C
[3]; dog D1502, 48 mg/kg, 144 hr
  BT (clinical observations, R-TA): redness/BT: 38.9 °C
[3]; dog D1502, 48 mg/kg, 192 hr
  BT (clinical observations, R-TA): BT: 38.7 °C
[3]; dog D1502, 48 mg/kg, 216 hr
  BT (clinical observations, R-TA): BT: 39.2 °C
[3]; dog D1502, 48 mg/kg, 240 hr
  BT (clinical observations, R-TA): BT: 38.6 °C
[3]; dog D1502, 48 mg/kg, 264 hr
  BT (clinical observations, R-TA): BT: 38.4 °C
[3]; dog D1502, 48 mg/kg, 288 hr
  BT (clinical observations, R-TA): BT: 38.6 °C
[3]; dog D1502, 48 mg/kg, […]
  BT (clinical observations, R-TA): redness/BT: 39.9 °C

## Oc1ccc2c3c1O[C@H]1c4[nH]c5ccccc5c4C[C@@]4(O)[C@@H](C2)N(CC2CC2)CC[C@]314 [Naltrindole, reference compound]
DOR; MaxDose 100 nM
  %Inh@MaxDose: 98.8%
